Consider two compounds from PubChem BioAssay (NCI).

Test in all cases: growth of human tumour cells (NCI), 48 h
In assay [1] the test system is CAKI-1 renal.
The subject of assay [2] is SK-MEL-28 melanoma.
In assay [3] the test system is NCI-H226 lung.
Assay [4] concerns HT29 colon.
Assay [5] deals with HS 578T breast.
Assay [6] deals with UACC-257 melanoma.
The test system of assay [7] is MDA-MB-435.
Assay [8] concerns UACC-62 melanoma.
Assay [9] deals with OVCAR-8 ovarian.
Assay [10] has as its system NCI-H23 lung.
For assay [11], the system named is SW-620 colon.

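48-hour exposure; five concentrations; linearly interpolated endpoints. At the TGI there is no net growth.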

Turning to `Cn1c(-c2csc(-c3ccc(Cl)cc3)n2)n[nH]c1=S`, the TGI in [1] was 56.4 µM; in assay [2] it was more than 100 µM; in assay [3], 57.3 µM; in assay [4], more than 100 µM; in [5] it was 83.7 µM; in assay [6], more than 100 µM. Besides, the TGI in assay [7] was more than 100 µM; in assay [8], 46.6 µM; in [9], 47.2 µM; in assay [10], 75.5 µM; in assay [11], more than 100 µM.
In the case of `NC(=O)c1n[nH]n(-c2ccccc2)c1=O`, the TGI in [1], in assay [2], in assay [3], in [4], in assay [5] and in assay [6] was more than 100 µM in each case. Also, the TGI in assay [7], in assay [8], in assay [9], in [10] and in [11] was more than 100 µM in each case.
